What all share (assay type): cell-based, human
In one test the test system is MCF-7. The test is described as follows: MTS cell proliferation assay, MCF-7. The note with it: for IC50: Homo sapiens; for inhibition on breast cancer cell proliferation (FIG. 1): MCF-7, 48 hr, μM concentrations. The procedure: Cancer cells (breast cancer cell lines MCF-7, MDA-MB-361, SKBR3 and MDA-MB-231, pancreatic cancer cell lines AsPC-1. […] Proliferation was measured by treating cells with the 3-(4,5-dimethylthiazol-2-yl)-5-(3-carboxymethoxyphenyl)-2-(4-sulfophenyl)-2H-tetrazolium) (MTS) in a CellTiter 96t AQueous Non-Radioactive Cell Proliferation Assay kit from Promega, Madison, Wis., USA). Absorbance of all wells was determined by measuring OD at 550 nm after 1 hr incubation at 37° C. on a 96-well iMark™ Microplate Absorbance Reader (BioRad, Hercules, Calif.). Each individual compound was tested in quadruplicate wells for each concentration, and the results were reported as mean absorption±s.e.
In Vitro Determination of Effects of Synthesized Compounds on Cancer Cell Proliferation. Cancer cells (breast cancer cell lines MCF-7 and MDA-MB-231, pancreatic cancer cell lines AsPC-1 and Panc-1) were […], 0.01, 0.1, 1, 5, 10, […] Proliferation was measured by treating cells with the 3-(4,5-dimethylthiazol-2-yl)-5-(3-carboxymethoxyphenyl)-2-(4-sulfophenyl)-2H-tetrazolium) (MTS) in a CellTiter 96t Aqueous Non-Radioactive Cell Proliferation Assay kit (Promega, Madison, Wis., USA). Absorbance of all wells was determined by measuring OD at 550 nm after 1 h incubation at 37° C. on a 96-well iMark™ Microplate Absorbance Reader (BioRad, Hercules, Calif.). Each individual compound was tested in quadruplicate wells for each concentration.
On the technique in general: Formazan colour is commonly taken as a measure of viable cells.

The test system of another test is MDA-MB-231. The test is described as follows: MTS cell proliferation assay, MDA-MB-231. The note with it: Homo sapiens, MDA-MB-231, >10 = no effect. The method, then:
(§1) Cancer cells (breast cancer cell lines MCF-7, MDA-MB-361, SKBR3 and MDA-MB-231, pancreatic cancer cell lines AsPC-1. BxPC3 and Panc-1) were seeded in 96-well plates at a density of 1000-2000 cells/well and treated with DMSO, 0.01, 0.1, 1, 5, 10, and […] of STAT3 individual inhibitors for 72 hrs. Proliferation was measured by treating cells with the 3-(4,5-dimethylthiazol-2-yl)-5-(3-carboxymethoxyphenyl)-2-(4-sulfophenyl)-2H-tetrazolium) (MTS) in a CellTiter 96t AQueous Non-Radioactive Cell Proliferation Assay kit from Promega, Madison, Wis., USA). Absorbance of all wells was determined by measuring OD at 550 nm after 1 hr incubation at 37° C. on a 96-well iMark™ Microplate Absorbance Reader (BioRad, Hercules, Calif.).
In Vitro Determination of Effects of Synthesized Compounds on Cancer Cell Proliferation. Cancer cells (breast cancer cell lines MCF-7 and MDA-MB-231, pancreatic cancer cell lines AsPC-1 and Panc-1) were seeded in 96-well plates at a density of 2×10^3 cells/well and treated with DMSO, 0.01, 0.1, 1, 5, 10, and 100 μM of individual STAT3 inhibitors for 72 h. Proliferation was measured by treating cells with the 3-(4,5-dimethylthiazol-2-yl)-5-(3-carboxymethoxyphenyl)-2-(4-sulfophenyl)-2H-tetrazolium) (MTS) in a CellTiter 96t Aqueous Non-Radioactive Cell Proliferation Assay kit (Promega, Madison, Wis., USA). Absorbance of all wells was determined by measuring OD at 550 nm after 1 h incubation at 37° C. on a 96-well iMark™ Microplate Absorbance Reader (BioRad, Hercules, Calif.). Each individual compound was tested in quadruplicate wells for each concentration. […]

The next test has as its system AsPC1. The test is described as follows: MTS cell proliferation assay, AsPC1. The conditions noted are these: Homo sapiens, ASPC1. The procedure:
as §1, with “Calif.). Each individual compound was tested in quadruplicate wells for each concentration, and the results were reported as mean absorption±s.e.” for “Calif.).”
(§2) In Vitro Determination of Effects of Synthesized Compounds on Cancer Cell Proliferation. Cancer cells (breast cancer cell lines MCF-7 and MDA-MB-231, pancreatic cancer cell lines AsPC-1 and Panc-1) were seeded in 96-well plates at a density of 2×10^3 cells/well and treated with DMSO, 0.01, 0.1, 1, 5, 10, and 100 μM of individual STAT3 inhibitors for 72 h. Proliferation was measured by treating cells with the 3-(4,5-dimethylthiazol-2-yl)-5-(3-carboxymethoxyphenyl)-2-(4-sulfophenyl)-2H-tetrazolium) (MTS) in a CellTiter 96t Aqueous Non-Radioactive Cell Proliferation Assay kit (Promega, Madison, Wis., USA). Absorbance of all wells was determined by measuring OD at 550 nm after 1 h incubation at 37° C. on a 96-well iMark™ Microplate Absorbance Reader (BioRad, Hercules, Calif.). Each individual compound was tested in quadruplicate wells for each concentration.

The subject of a further test is Panc-1. The test is described as follows: MTS cell proliferation assay, Panc-1. The conditions noted are these: Homo sapiens, PANC-1. The procedure: as §1, with “Calif.). Each individual compound was tested in quadruplicate wells for each concentration, and the results were reported as mean absorption±s.e.” for “Calif.).”
as §2

Setting [1] is: MCF7, Table 2 numbering 1-14, >10 = no effect, read-out: IC50 MCF-7 (Table 2).
Where [2] appears, read: Table 2 numbering 1-14, read-out: IC50 MDA-MB-231 (Table 2).
[3] abbreviates: Table 2 numbering 1-14, read-out: IC50 AsPC1 (Table 2).
[4] abbreviates: Table 2 numbering 1-14, read-out: IC50 Panc-1 (Table 2).
Where [5] appears, read: MCF7, 72 h, read-out: IC50 MCF-7 (Table 1).
Setting [6] is: ER-negative breast cancer, 72 hrs, read-out: IC50 MDA-MB-231 (Table 1).
Where [7] appears, read: pancreatic cancer, 72 hrs, >10 = no effect, read-out: IC50 AsPC1 (Table 1).
[8] abbreviates: pancreatic cancer, 72 hrs, >10 = no effect, read-out: IC50 Panc-1 (Table 1).
Where [9] appears, read: MCF7, Example 4 numbering, 72 h, >10 = no effect, read-out: IC50 MCF-7 (Table 4).
Where [10] appears, read: Example 4 numbering, 72 h, read-out: IC50 MDA-MB-231 (Table 4).
[11] abbreviates: Example 4 numbering, 72 h, >10 = no effect, read-out: IC50 AsPC1 (Table 4).
Setting [12] is: Example 4 numbering, 72 h, >10 = no effect, read-out: IC50 Panc-1 (Table 4).

Like-named read-outs stand apart in the source and are kept apart here. A value given as a limit tells only on which side of the number the result lay.

A word on the IC50: it is the point on the concentration scale where inhibition reaches its midpoint.

As to `COC1CS(=O)(=O)c2cc(NC(=O)c3cc(Cl)ccc3O)ccc21` (stereo not drawn) [Compound 14], the 50% inhibitory concentration (IC50) in the test with MCF-7 (setting [1]) is 6.07 µM; with MDA-MB-231 (setting [2]), 7.05 µM; in the test on AsPC1 (setting [3]) it was 8.46 µM; in the test on Panc-1 (setting [4]), 8.39 µM.
As for `NCCCOc1ccc(Cl)cc1C(=O)Nc1ccc([N+](=O)[O-])cc1Cl` [HJC-3-8, 2-(3-Aminopropoxy)-5-chloro-N-(2-chloro-4-nitrophenyl)benzamide], the IC50 is 3.11 µM in the test on MCF-7 (setting [5]), 2.61 µM with MDA-MB-231 (setting [6]), 4.2 µM in the test on AsPC1 (setting [7]) and 3.11 µM in the test on Panc-1 (setting [8]). Moreover, the “inhibition on breast cancer cell proliferation (FIG. 1)” value (shortened to “inhibition”) with MCF-7 is “significant inhibition”.
Consider `N#C/C(=C\c1cccc(Br)n1)C(=O)Nc1ccc2c(c1)S(=O)(=O)C=C2` [HJC-3-71, 3-(6-Bromo-pyridin-2-yl)-2-cyano-N-(1,1-dioxo-1H-1λ^6-benzo[b]thiophen-6-yl)-acrylamide], for which the half-maximal inhibitory concentration (IC50) is 3.31 µM with MCF-7 (setting [5]), 1.53 µM in the test with MDA-MB-231 (setting [6]), 1.54 µM with AsPC1 (setting [7]) and 1.64 µM in the test on Panc-1 (setting [8]). Moreover, the “inhibition” value with MCF-7 is “significant inhibition”.
With `C[C@H](NC(=O)c1cc(Cl)ccc1O)c1ccccc1` [Compound 9], the half-maximal inhibitory concentration (IC50) with MCF-7 (setting [9]) stood at 0.9 µM; in the test with MCF-7 (MCF7, Example 4 numbering, read-out: IC50 MCF-7 (Example 4)) it was 0.9 µM; with MDA-MB-231 (setting [10]), 8.88 µM; with AsPC1 (setting [11]), 7.54 µM; in the test with Panc-1 (setting [12]), 8.44 µM.
Regarding `CNCCOc1ccc(Cl)cc1C(=O)Nc1ccc2c(c1)S(=O)(=O)C=C2` [HJC-4-28, 5-Chloro-N-(1,1-dioxo-1H-1λ^6-benzo[b]thiophen-6-yl)-2-(2-methylaminoethoxy)benzamide], the half-inhibitory concentration (IC50) in the test with MCF-7 (setting [5]) worked out at 3.15 µM; in the test on MDA-MB-231 (setting [6]), 3.12 µM; with AsPC1 (setting [7]), 2.05 µM; with Panc-1 (setting [8]), 3.09 µM. Also, the “inhibition” value in the test with MCF-7 was “significant inhibition”.
The matching figures for `NCCCOc1ccc(Cl)cc1C(=O)Nc1ccc2c(c1)S(=O)(=O)C=C2` [HJC-4-16, 2-(3-Aminopropoxy)-5-chloro-N-(1,1-dioxo-1H-1λ^6-benzo[b]thiophen-6-yl)benzamide]: 1.76 µM, 1.97 µM, 0.27 µM, 1.88 µM and “significant inhibition”.
The corresponding values for `NCCCCCOc1ccc(Cl)cc1C(=O)Nc1ccc([N+](=O)[O-])cc1Cl` [HJC-3-89, 2-(5-Amino-pentyloxy)-5-chloro-N-(2-chloro-4-nitro-phenyl)benzamide] are 3.49 µM, 3.1 µM, 2.08 µM, 4.67 µM and “significant inhibition”.
Turning to `C[C@H](NC(=O)c1cc(-c2ccccc2)nc2ccccc12)c1ccccc1` [Compound 8], the IC50 in the test with MCF-7 (setting [9]) was 2.24 µM; in the test on MDA-MB-231 (setting [10]), 86 µM; in the test with AsPC1 (setting [11]) it was above 10 µM; in the test with Panc-1 (setting [12]) it was above 10 µM.
Regarding `O=C(Nc1ccc2c(c1)S(=O)(=O)C=C2)c1cc(Cl)ccc1O` [Compound 1], the IC50 with MCF-7 (setting [1]) is 0.91 µM; in the test with MDA-MB-231 (setting [2]), 1.64 µM; with AsPC1 (setting [3]) it was 1.92 µM; in the test with Panc-1 (setting [4]) it was 2.34 µM.
As for `O=C(Nc1ccc2c(c1)S(=O)(=O)C=C2)c1ccnc(-c2ccccc2)c1` [HJC-4-30, N-(1,1-Dioxo-1H-1λ^6-benzo[b]thiophen-6-yl)-2-phenyl-isonicotinamide], the IC50 turned out to be 3.78 µM with MCF-7 (setting [5]), 1.85 µM in the test on MDA-MB-231 (setting [6]), 1.3 µM in the test on AsPC1 (setting [7]) and 3.35 µM in the test on Panc-1 (setting [8]). Moreover, the “inhibition” value with MCF-7 is given as “significant inhibition”.
For the compound `O=C(Nc1ccc2c(c1)S(=O)(=O)C=C2)c1cc(Cl)ccc1O` [Compd 12], the IC50 was found to be 0.91 µM with MCF-7 (setting [9]), 1.64 µM with MDA-MB-231 (setting [10]), 1.92 µM in the test with AsPC1 (setting [11]) and 2.34 µM with Panc-1 (setting [12]).
The matching figures for `N#C/C(=C\c1cccc(Br)n1)C(=O)Nc1ccc2c(c1)S(=O)(=O)C=C2` [Compound 10]: 3.31 µM, 1.53 µM, 1.54 µM and 1.64 µM.
With `Cc1ccc(S(=O)(=O)Nc2ccc3c(c2)S(=O)(=O)C=C3)cc1` [HJC-3-70, N-(1,1-Dioxo-1H-1λ^6-benzo[b]thiophen-6-yl)-4-methylbenzenesulfonamide], the IC50 came to 3.24 µM in the test with MCF-7 (setting [5]), 2.66 µM in the test with MDA-MB-231 (setting [6]), 1.92 µM in the test on AsPC1 (setting [7]) and 2.89 µM in the test with Panc-1 (setting [8]).
The matching figures for `O=C(Nc1ccc2c(c1)S(=O)(=O)C=C2)c1cc(Cl)ccc1OCCN1CCNCC1` [HJC-4-13, 5-Chloro-N-(1,1-dioxo-1H-1λ^6-benzo[b]thiophen-6-yl)-2-(2-piperazin-1-yl-ethoxy) benzamide]: 2.56 µM, 3.29 µM, 1.87 µM and 3.69 µM.

Values taken from patent publication US9884863B2, “STAT3 inhibitor” (Board of Regents, The University of Texas System, priority 2013, dated 2018).
